Patent US10538517B2, “Quinolone derivatives as FGFR inhibitors” (Principia Biopharma, Inc., priority 2015, dated 2020)

These compounds were tested on SNU-16 cells (assay: Inhibition of FGFR2-dependent cell growth (Cell-titer Glo)). Conditions: Homo sapiens, 72 hrs incubation, cell viability, read-out: SNU16 IC50 values.
Format: cell-based
Experimental: The cell-based effects of FGFR inhibitors were determined by measuring inhibition of FGFR-dependent cell line growth. The cell lines SNU-16 was used for these assays. […] Percent inhibition of cell growth was calculated as a percentage of untreated cell viability. The percent inhibition was plotted as a function of log compound concentration. The IC50 was then calculated for each compound using Prism software from GraphPad.

IC50 [nM]	Compound
29.7	CNc1ncc2cc(-c3cc(OC)cc(OC)c3)c(=O)n(CCc3ccc(NC(=O)C(C#N)=CC(C)(C)N)cc3)c2n1 [Cpd 9 (table 2), 4-amino-2-cyano-N-(4-(2-(6-(3,5-dimethoxyphenyl)-2-(methylamino)-7-oxopyrido[2,3-d]pyrimidin-8(7H)-yl)ethyl)phenyl)-4-methylpent-2-enamide]
18.6	CNc1ncc2cc(-c3cc(OC)cc(OC)c3)c(=O)n(CCc3ccc(NC(=O)C(C#N)=CC(C)(C)C)cc3)c2n1 [Cpd 8 (table 2), 2-cyano-N-(4-(2-(6-(3,5-dimethoxyphenyl)-2-(methylamino)-7-oxopyrido[2,3-d]pyrimidin-8(7H)-yl)ethyl)phenyl)-4,4-dimethylpent-2-enamide]

Same assay, conditions: Homo sapiens, SNU-16, 72 h, 72 hrs incubation, cell viability, read-out: SNU16 IC50 values

Compound	IC50 [nM]
CCN(CC)CCCCNc1ncc2cc(-c3c(Cl)c(OC)cc(OC)c3Cl)c(=O)n(CCc3ccc(NC(=O)C(C#N)=CC(C)C)cc3)c2n1 [Cpd 4 (table 2), 2-cyano-N-(4-(2-(6-(2,6-dichloro-3,5-dimethoxyphenyl)-2-((4-(diethylamino)butyl)amino)-7-oxopyrido[2,3-d]pyrimidin-8(7H)-yl)ethyl)phenyl)-4-methylpent-2-enamide]	5.3
COc1cc(OC)c(Cl)c(-c2cc3cnc(NCC(C)(C)O)nc3n(CCc3cccc(NC(=O)C(C#N)=CC(C)(C)C)c3)c2=O)c1 [Cpd 52 (table 2), N-(3-(2-(6-(2-chloro-3,5-dimethoxyphenyl)-2-((2-hydroxy-2-methylpropyl)amino)-7-oxopyrido[2,3-d]pyrimidin-8(7H)-yl)ethyl)phenyl)-2-cyano-4,4-dimethylpent-2-enamide]	15.7
CNc1ncc2cc(-c3cc(OC)cc(OC)c3Cl)c(=O)n(CCc3ccnc(NC(=O)C(C#N)=CC(C)(C)N)c3)c2n1 [Cpd 20 (table 2), 4-amino-N-(4-(2-(6-(2-chloro-3,5-dimethoxyphenyl)-2-(methylamino)-7-oxopyrido[2,3-d]pyrimidin-8(7H)-yl)ethyl)pyridin-2-yl)-2-cyano-4-methylpent-2-enamide]	91.4
CCN(CC)CCCCNc1ncc2cc(-c3c(Cl)c(OC)cc(OC)c3Cl)c(=O)n(Cc3cccc(NC(=O)C(C#N)=CC(C)C)c3)c2n1 [Cpd 5 (table 2), 2-cyano-N-(3-((6-(2,6-dichloro-3,5-dimethoxyphenyl)-2-((4-(diethylamino)butyl)amino)-7-oxopyrido[2,3-d]pyrimidin-8(7H)-yl)methyl)phenyl)-4-methylpent-2-enamide]	1.5
COc1cc(OC)c(Cl)c(-c2cc3cnc(NCCN4CCOCC4)nc3n(CCc3ccc(NC(=O)C(C#N)=CC(C)(C)C)cc3)c2=O)c1 [Cpd 68 (table 2), N-(4-(2-(6-(2-chloro-3,5-dimethoxyphenyl)-2-((2-morpholinoethyl)amino)-7-oxopyrido[2,3-d]pyrimidin-8(7H)-yl)ethyl)phenyl)-2-cyano-4,4-dimethylpent-2-enamide]	35.5
CNc1ncc2cc(-c3cc(OC)cc(OC)c3Cl)c(=O)n(CCCc3ccc(C=C(C#N)C(=O)NC(C)(C)C)cc3)c2n1 [Cpd 75 (table 2), N-(tert-butyl)-3-(4-(3-(6-(2-chloro-3,5-dimethoxyphenyl)-2-(methylamino)-7-oxopyrido[2,3-d]pyrimidin-8(7H)-yl)propyl)phenyl)-2-cyanoacrylamide]	87.2
CNc1ncc2cc(-c3cc(OC)cc(OC)c3Cl)c(=O)n(CCc3ccc(NC(=O)C(C#N)=CC(C)(C)N)nc3)c2n1 [Cpd 21 (table 2), 4-amino-N-(5-(2-(6-(2-chloro-3,5-dimethoxyphenyl)-2-(methylamino)-7-oxopyrido[2,3-d]pyrimidin-8(7H)-yl)ethyl)pyridin-2-yl)-2-cyano-4-methylpent-2-enamide]	33.1
CNc1ncc2cc(-c3cc(OC)cc(OC)c3)c(=O)n(CCc3cccc(NC(=O)C(C#N)=CC(C)(C)N)c3)c2n1 [Cpd 11 (table 2), 4-amino-2-cyano-N-(3-(2-(6-(3,5-dimethoxyphenyl)-2-(methylamino)-7-oxopyrido[2,3-d]pyrimidin-8(7H)-yl)ethyl)phenyl)-4-methylpent-2-enamide]	73.4
CNc1ncc2cc(-c3cc(OC)cc(OC)c3Cl)c(=O)n(CCN3CCN(C(=O)C(C#N)=CC(C)(C)C)CC3)c2n1 [Cpd 2 (table 1), 2-(4-(2-(6-(2-chloro-3,5-dimethoxyphenyl)-2-(methylamino)-7-oxopyrido[2,3-d]pyrimidin-8(7H)-yl)ethyl)piperazine-1-carbonyl)-4,4-dimethylpent-2-enenitrile]	50.8
CNc1ncc2cc(-c3cc(OC)cc(OC)c3Cl)c(=O)n(CCc3cccc(NC(=O)C(C#N)=CC(C)(C)N)n3)c2n1 [Cpd 17 (table 2), 4-amino-N-(6-(2-(6-(2-chloro-3,5-dimethoxyphenyl)-2-(methylamino)-7-oxopyrido[2,3-d]pyrimidin-8(7H)-yl)ethyl)pyridin-2-yl)-2-cyano-4-methylpent-2-enamide]	8.1
CNc1ncc2cc(-c3cc(OC)cc(OC)c3Cl)c(=O)n(CCc3ccc(NC(=O)C(C#N)=CC(C)(C)N4CCN(C5COC5)CC4)cc3)c2n1 [Cpd 61 (table 2), N-(4-(2-(6-(2-chloro-3,5-dimethoxyphenyl)-2-(methylamino)-7-oxopyrido[2,3-d]pyrimidin-8(7H)-yl)ethyl)phenyl)-2-cyano-4-methyl-4-(4-(oxetan-3-yl)piperazin-1-yl)pent-2-enamide]	4.3
CNc1ncc2cc(-c3cc(OC)cc(OC)c3Cl)c(=O)n(CCN3C[C@@H]4CN(C(=O)C(C#N)=CC(C)(C)C)C[C@@H]4C3)c2n1 [Cpd 6 (table 1), 2-((3aR,6aS)-5-(2-(6-(2-chloro-3,5-dimethoxyphenyl)-2-(methylamino)-7-oxopyrido[2,3-d]pyrimidin-8(7H)-yl)ethyl)octahydropyrrolo[3,4-c]pyrrole-2-carbonyl)-4,4-dimethylpent-2-enenitrile]	649
CCOC(C)(C)C=C(C#N)C(=O)Nc1ccc(CCn2c(=O)c(-c3cc(OC)cc(OC)c3Cl)cc3cnc(NC)nc32)cc1 [Cpd 27 (table 2), N-(4-(2-(6-(2-chloro-3,5-dimethoxyphenyl)-2-(methylamino)-7-oxopyrido[2,3-d]pyrimidin-8(7H)-yl)ethyl)phenyl)-2-cyano-4-ethoxy-4-methylpent-2-enamide]	4.2
COc1cc(OC)c(Cl)c(-c2cc3cnc(N)nc3n(CCc3cccc(NC(=O)C(C#N)=CC(C)(C)C)c3)c2=O)c1 [Cpd 50 (table 2), N-(3-(2-(2-amino-6-(2-chloro-3,5-dimethoxyphenyl)-7-oxopyrido[2,3-d]pyrimidin-8(7H)-yl)ethyl)phenyl)-2-cyano-4,4-dimethylpent-2-enamide]	4.6
CNc1ncc2cc(-c3cc(OC)cc(OC)c3Cl)c(=O)n(CCc3cccc(N(C)C(=O)C(C#N)=CC(C)(C)N)c3)c2n1 [Cpd 26 (table 2), 4-amino-N-(3-(2-(6-(2-chloro-3,5-dimethoxyphenyl)-2-(methylamino)-7-oxopyrido[2,3-d]pyrimidin-8(7H)-yl)ethyl)phenyl)-2-cyano-N,4-dimethylpent-2-enamide]	56
CNc1ncc2cc(-c3cc(OC)cc(OC)c3Cl)c(=O)n(CCc3cccc(NC(=O)C(C#N)=CC(C)(C)C)n3)c2n1 [Cpd 16 (table 2), N-(6-(2-(6-(2-chloro-3,5-dimethoxyphenyl)-2-(methylamino)-7-oxopyrido[2,3-d]pyrimidin-8(7H)-yl)ethyl)pyridin-2-yl)-2-cyano-4,4-dimethylpent-2-enamide]	43.9
CNc1ncc2cc(-c3cc(OC)cc(OC)c3Cl)c(=O)n(CCc3ccc(NC(=O)C(C#N)=CC(C)(C)N4C[C@@H](C)N(C)[C@@H](C)C4)cc3)c2n1 [Cpd 60 (table 2), N-(4-(2-(6-(2-chloro-3,5-dimethoxyphenyl)-2-(methylamino)-7-oxopyrido[2,3-d]pyrimidin-8(7H)-yl)ethyl)phenyl)-2-cyano-4-methyl-4-((3S,5R)-3,4,5-trimethylpiperazin-1-yl)pent-2-enamide]	5.6
CNc1ncc2cc(-c3cc(OC)cc(OC)c3Cl)c(=O)n(CCc3cccc(NC(=O)C(C#N)=CC(C)(C)N4CCC(O)CC4)c3)c2n1 [Cpd 53 (table 2), N-(3-(2-(6-(2-chloro-3,5-dimethoxyphenyl)-2-(methylamino)-7-oxopyrido[2,3-d]pyrimidin-8(7H)-yl)ethyl)phenyl)-2-cyano-4-(4-hydroxypiperidin-1-yl)-4-methylpent-2-enamide]	5.1
CNc1ncc2cc(-c3cc(OC)cc(OC)c3Cl)c(=O)n(CCc3cnc(NC(=O)C(C#N)=CC(C)(C)C)cn3)c2n1 [Cpd 71 (table 2), N-(5-(2-(6-(2-chloro-3,5-dimethoxyphenyl)-2-(methylamino)-7-oxopyrido[2,3-d]pyrimidin-8(7H)-yl)ethyl)pyrazin-2-yl)-2-cyano-4,4-dimethylpent-2-enamide]	79.6
CNc1ncc2cc(-c3cc(OC)cc(OC)c3Cl)c(=O)n(CCCN3CCN(C(=O)C(C#N)=CC(C)(C)C)CC3)c2n1 [Cpd 5 (table 1), 2-(4-(3-(6-(2-chloro-3,5-dimethoxyphenyl)-2-(methylamino)-7-oxopyrido[2,3-d]pyrimidin-8(7H)-yl)propyl)piperazine-1-carbonyl)-4,4-dimethylpent-2-enenitrile]	27.2
CNc1ncc2cc(-c3c(Cl)c(OC)cc(OC)c3Cl)c(=O)n(CCN3CCN(C(=O)C(C#N)=CC(C)(C)C)CC3)c2n1 [Cpd 3 (table 1), 2-(4-(2-(6-(2,6-dichloro-3,5-dimethoxyphenyl)-2-(methylamino)-7-oxopyrido[2,3-d]pyrimidin-8(7H)-yl)ethyl)piperazine-1-carbonyl)-4,4-dimethylpent-2-enenitrile]	34
CNc1ncc2cc(-c3cc(OC)cc(OC)c3Cl)c(=O)n(CCc3cccc(NC(=O)C(C#N)=CC(C)(C)N(C)C4COC4)c3)c2n1 [Cpd 43 (table 2), N-(3-(2-(6-(2-chloro-3,5-dimethoxyphenyl)-2-(methylamino)-7-oxopyrido[2,3-d]pyrimidin-8(7H)-yl)ethyl)phenyl)-2-cyano-4-methyl-4-(methyl(oxetan-3-yl)amino)pent-2-enamide]	2.4
